“Also recorded” adds a separate entry of the source.
Experiments:
[1] = system: NRASmut melanoma cells (WM3000 or M93-047) tumors; assay: NRAS mutant melanoma xenograft tumors in NSG mice; assay type: in vivo; conditions: 2.5 mg/kg i.p. q.d.
Method: FIGS. 2a-h. […] (FIGS. 2a-c) NRASmut melanoma cells (FIG. 2a), BRAF-V600E/NRAS mutant cells derived from melanoma patients resistant to BRAF/MEK inhibitors (FIG. 2b), or non-transformed melanocytes and fibroblasts (FIG. 2c) were treated with 6-thio-dG for 7 days. Cell viability was measured by Alamar Blue assay and calculated relative to DMSO-treated cells. (FIG. 2d) NRASmut melanoma cells and non-transformed human fibroblasts were treated with 1 or 5 μM 6-thio-dG for 7 or 14 days. Cell death was assessed by PSVUe staining. Percent of apoptotic cells is shown. (FIG. 2e) Cells were treated with DMSO or 1 μM 6-thio-dG for 14 days and telomere length was assessed by Southern blotting of TRF. Mean TRF length expressed as kilobase pairs is indicated at the bottom. […] (FIG. 2f) ROS production was measured by H2DCFDA fluorescence and normalized to MSO treated cells. (FIG. 2g) DNA damage was assessed by γH2AX staining. […] Tumor volume was measured and average tumor volume (n=4)±SEM was plotted vs. time.
green) and EtBr (dead cells; red) and imaged using an inverted microscope (4×; scale bar=250 μm). […] P values were calculated using unpaired Student's t-test. * p<0.05, **p<0.01, ***p<0.005, when comparing vehicle control vs. combination treatment groups. […] Kaplan Meier survival curves of mice treated for 14 days. p-values were calculated by Mantel-Cox logrank test; * p<0.05, **p<0.01, ***p<0.005. […]

[2] = system: NRAS mutant melanoma cells; assay: Cell death by flow cytometry (PSVue or Annexin V/PI); assay type: cell-based
Method: (FIG. 2d) NRASmut melanoma cells and non-transformed human fibroblasts were treated with 1 or 5 μM 6-thio-dG for 7 or 14 days. Cell death was assessed by PSVUe staining. Percent of apoptotic cells is shown. […] (FIGS. 2f-g) Cells were treated with 1 μM 6-thio-dG for 7 days. […] Data represent average from three independent experiments±SEM. *p<0.05; **p<0.01; ***p<0.005 in unpaired Student's t-test.
(FIG. 3f) SOD2 was silenced using shRNA. Transduced M93-047 cells were treated with DMSO or 1 μM of 6-thio-dG and cell death was assessed by Annexin V/PI straining. (FIG. 3g) M93-047 cells were transduced with a SOD2 lentiviral construct or empty vector control (pLX304). Transduced cells were treated with increasing doses (1, 2.5 and 5 μM) of 6-thio-dG for 7 days and cell death was assessed. Data represent average from three independent experiments±SEM. *p<0.05; **p<0.01; ***p<0.005 in unpaired Student's t-test.
(FIG. 4a) NRASmut melanoma cells transduced with TERT shRNA were treated 7 days post infection with 5 μM Gamitrinib (Gam) for 48 h. Cell death was assessed by Annexin V and PI staining. (FIG. 4b) NRASmut melanoma cells and non-transformed fibroblasts were treated with 1 μM 6-thio-dG for 5 days. At day 5, culture medium was replaced and cells treated with 1 μM 6-thio-dG plus 5 μM Gam for two more days. Cells were stained with Annexin V and PI and percent cell death was determined by flow cytometry. […] Data represent average of three independent experiments ±SEM. P values were calculated using unpaired Student's t-test; * p<0.05; ***p<0.005.
(Supplementary FIG. 10a) NRASmut melanoma cells were treated with 6-thio-dG (1 μ) for 7 days total. At day 5, culture medium was replaced and cells were treated with 1 μM 6-thio-dG plus 1 mM Phenformin for two more days. Percent cell death was determined by flow cytometry following staining of cells with Annexin V and Propidium iodide. Data represent average of three independent experiments +/−SEM. *p<0.05 in unpaired Student's t-test.

[3] = system: NRAS mutant melanoma cells; assay: Telomere length, Southern blotting of TRF; assay type: cell-based, human; conditions: 1 μM for 14 days
Method: FIGS. 2a-h. […] (FIGS. 2a-c) NRASmut melanoma cells (FIG. 2a), BRAF-V600E/NRAS mutant cells derived from melanoma patients resistant to BRAF/MEK inhibitors (FIG. 2b), or non-transformed melanocytes and fibroblasts (FIG. 2c) were treated with 6-thio-dG for 7 days. Cell viability was measured by Alamar Blue assay and calculated relative to DMSO-treated cells. (FIG. 2d) NRASmut melanoma cells and non-transformed human fibroblasts were treated with 1 or 5 μM 6-thio-dG for 7 or 14 days. Cell death was assessed by PSVUe staining. Percent of apoptotic cells is shown. (FIG. 2e) Cells were treated with DMSO or 1 μM 6-thio-dG for 14 days and telomere length was assessed by Southern blotting of TRF. Mean TRF length expressed as kilobase pairs is indicated at the bottom. (FIGS. 2f-g) Cells were treated with 1 μM 6-thio-dG for 7 days. (FIG. 2f) ROS production was measured by H2DCFDA fluorescence and normalized to MSO treated cells. (FIG. 2g) DNA damage was assessed by γH2AX staining. Data represent average from three independent experiments±SEM. *p<0.05; **p<0.01; ***p<0.005 in unpaired Student's t-test. […] Tumor volume was measured and average tumor volume (n=4)±SEM was plotted vs. time.
Telomere length assay. […] The images were analyzed with Phosphorimager, visualized by Typhoon 9410 Imager (GE Healthcare), and processed with ImageQuant 5.2 software (Molecular Dynamics).

[4] = system: NRAS-WT/BRAF-WT melanoma cells; assay: Cell death, Annexin V/PI; assay type: cell-based, human; conditions: single agents or combination; 1 μM 6-thio-dG, 5 μM Gam

Compound: Nc1nc2c(ncn2[C@H]2C[C@H](O)[C@@H](CO)O2)c(=S)[nH]1 [6-thio-dG, 6-thio-2′-deoxy-guanosine]
- tumor growth, single agent [1]: slowed the growth of tumors; also recorded: slowed, but did not completely abrogated tumor growth
- cell death ([2]; 1 or 5 μM for 7 or 14 days, PSVue staining): led to cell death
- apoptosis in SOD2 overexpressing cells ([2]; SOD2 lentiviral construct, 1, 2.5 and 5 μM 6-thio-dG): attenuated the apoptosis-inducing effects
- apoptosis in SOD2 depleted cells ([2]; SOD2 shRNA, 1 μM 6-thio-dG, M93-047, WM3000): enhanced the ability of 6-thio-dG to induce apoptosis
- telomere length (mean TRF) [3]: without evidence for significant telomere shortening
- cell death [4]: did not induce cell death

— patent US20210113602A1, “USE OF 6-THIO-2'-DEOXYGUANOSINE (6-THIO-dG) TO TREAT MELANOMA” (The Board of Regents of the University of Texas System, priority 2018, published 2021)
